# In paper PMC10257182, “Discovery of senolytics using machine learning” (Nature Communications, 2023):
# Structures can show the parent of a compound that is named as a salt. Where two headings read alike, the source gives them in different places.
# Columns and labels:
# Format in all cases: cell-based, human
# [1] = test system: non-senescent control IMR90 ER:RAS cells; test: Nuclei count (Hoechst, high content imaging) senolytic assay, OIS model, non-senescent control cells; details: Homo sapiens; for viability at 2.188 µM: log (dose) [M] -5.66, 72 h; for viability at 0.4677 µM: log (dose) [M] -6.33, 72 h; for viability at 2.19 µM: log (dose) [M] -5.66; for viability at 0.468 µM: log (dose) [M] -6.33
# How it was run: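 Senescence in IMR90 ER:RAS fibroblasts induced with 100 nM 4-OHT; non-senescent and senescent cells treated 72 h with compounds, 10-point […] range 10 μM–10 nM, triplicate. Cells fixed, permeabilised, Hoechst-stained; total nuclei per well counted by high-content imaging versus untreated controls as cell-death readout.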
# [2] = test system: non-senescent control A549 cells; test: Nuclei count senolytic assay, TIS model, non-senescent control cells; details: Homo sapiens, A549, Control cells, mean, read-out: Mean % Cell Survival; for viability at 10 µM: log (dose) [M] -5; for viability at 4.68 µM: log (dose) [M] -5.33; for viability at 2.19 µM: log (dose) [M] -5.66; for viability at 1 µM: log (dose) [M] -6; for viability at 0.468 µM: log (dose) [M] -6.33; for viability at 0.219 µM: log (dose) [M] -6.66; for viability at 0.1 µM: log (dose) [M] -7; for viability at 0.0468 µM: log (dose) [M] -7.33; for viability at 0.0219 µM: log (dose) [M] -7.66; for viability at 0.01 µM: log (dose) [M] -8
# How it was run: (§1)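 A549 cells were made senescent with 100 μM etoposide for 48 h, then kept three days in normal media; non-senescent A549 served as controls. Compounds were dosed as a 10-point […] series (10 μM to 10 nM final) for 72 h in triplicate. Hoechst-stained nuclei were counted by imaging after fixation.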
# [3] = test system: senescent A549 cells (etoposide-induced); test: Nuclei count senolytic assay, therapy-induced senescence (TIS) model, senescent cells; details: Homo sapiens, A549, Senescent cells, mean, read-out: Mean % Cell Survival; for viability at 10 µM: log (dose) [M] -5; for viability at 4.68 µM: log (dose) [M] -5.33; for viability at 2.19 µM: log (dose) [M] -5.66; for viability at 1 µM: log (dose) [M] -6; for viability at 0.468 µM: log (dose) [M] -6.33; for viability at 0.219 µM: log (dose) [M] -6.66; for viability at 0.1 µM: log (dose) [M] -7; for viability at 0.0468 µM: log (dose) [M] -7.33; for viability at 0.0219 µM: log (dose) [M] -7.66; for viability at 0.01 µM: log (dose) [M] -8
# How it was run: as §1
# [4] = IMR-90, 72 h, Control, log (dose) [M] -5, 72 h, mean n=3 (Fig 3C), read-out: Mean % Cell Survival
# [5] = IMR-90, 72 h, Control, log (dose) [M] -5.33, 72 h, mean n=3 (Fig 3C), read-out: Mean % Cell Survival
# [6] = IMR-90, 72 h, Control, mean n=3 (Fig 3C), read-out: Mean % Cell Survival
# [7] = IMR-90, 72 h, Control, log (dose) [M] -6, 72 h, mean n=3 (Fig 3C), read-out: Mean % Cell Survival
# [8] = IMR-90, 72 h, Control, log (dose) [M] -6.66, 72 h, mean n=3 (Fig 3C), read-out: Mean % Cell Survival
# [9] = IMR-90, 72 h, Control, log (dose) [M] -7, 72 h, mean n=3 (Fig 3C), read-out: Mean % Cell Survival
# [10] = IMR-90, 72 h, Control, log (dose) [M] -7.33, 72 h, mean n=3 (Fig 3C), read-out: Mean % Cell Survival
# [11] = IMR-90, 72 h, Control, log (dose) [M] -7.66, 72 h, mean n=3 (Fig 3C), read-out: Mean % Cell Survival
# [12] = IMR-90, 72 h, Control, log (dose) [M] -8, 72 h, mean n=3 (Fig 3C), read-out: Mean % Cell Survival
# [13] = IMR-90, Control cells, log (dose) [M] -7.33, individual replicates, SUP FIG 4C, read-out: % Cell Survival
# [14] = IMR-90, Control cells, log (dose) [M] -8, individual replicates, SUP FIG 4C, read-out: % Cell Survival
# [15] = IMR-90, Control, log (dose) [M] -5.33, read-out: % Cell Survival
# [16] = IMR-90, Control, read-out: % Cell Survival
structure (smiles),measurement,setting,value
"CC[C@]1(O)C[C@@H]2CN(CCc3c([nH]c4ccccc34)[C@@](C(=O)OC)(c3cc4c(cc3OC)N(C)[C@H]3[C@@](O)(C(=O)OC)[C@H](OC(C)=O)[C@]5(CC)C=CCN6CC[C@]43[C@@H]65)C2)C1 [Vinblastine sulfate, vinblastine sulfate, reference compound]",viability at 10 µM,[1]; [4],51.7%
same,viability at 4.677 µM,[1]; [5],55.1%
same,viability at 2.188 µM,[1]; [6],57.9%
same,viability at 1 µM,[1]; [7],76.4%
same,viability at 0.4677 µM,[1]; [6],76.9%
same,viability at 0.2188 µM,[1]; [8],80.8%
same,viability at 0.1 µM,[1]; [9],104%
same,viability at 0.04677 µM,[1]; [10],112%
same,viability at 0.02188 µM,[1]; [11],104%
same,viability at 0.01 µM,[1]; [12],105%
same,viability at 0.04677 µM,[1]; [13],114%
same,viability at 0.01 µM,[1]; [14],102%
same,viability at 10 µM,"[1]; IMR-90, Control, log (dose) [M] -5, read-out: % Cell Survival",46.8%
same,viability at 4.68 µM,[1]; [15],42.3%
same,viability at 2.19 µM,[1]; [16],47.6%
same,viability at 1 µM,"[1]; IMR-90, Control, log (dose) [M] -6, read-out: % Cell Survival",41.3%
same,viability at 0.468 µM,[1]; [16],41.5%
same,viability at 10 µM,[2],47.4%
same,viability at 4.68 µM,[2],46.3%
same,viability at 2.19 µM,[2],48.5%
same,viability at 1 µM,[2],47%
same,viability at 0.468 µM,[2],45.9%
same,viability at 0.219 µM,[2],49.9%
same,viability at 0.1 µM,[2],52.9%
same,viability at 0.0468 µM,[2],66.7%
same,viability at 0.0219 µM,[2],69.2%
same,viability at 0.01 µM,[2],78.7%
same,viability at 10 µM,[3],88.8%
same,viability at 4.68 µM,[3],83.2%
same,viability at 2.19 µM,[3],90.4%
same,viability at 1 µM,[3],72.2%
same,viability at 0.468 µM,[3],92.1%
same,viability at 0.219 µM,[3],97.3%
same,viability at 0.1 µM,[3],103%
same,viability at 0.0468 µM,[3],99.9%
same,viability at 0.0219 µM,[3],103%
same,viability at 0.01 µM,[3],104%
"CO[C@H]1C[C@@H]2CC[C@@H](C)[C@@](O)(O2)C(=O)C(=O)N2CCCC[C@H]2C(=O)O[C@H]([C@H](C)C[C@@H]2CC[C@H](n3cnnn3)[C@H](OC)C2)CC(=O)[C@H](C)/C=C(\C)[C@@H](O)[C@@H](OC)C(=O)[C@H](C)C[C@H](C)/C=C/C=C/C=C/1C [Zotarolimus, zotarolimus, reference compound]",viability at 10 µM,[1]; [4],94.7%
same,viability at 4.677 µM,[1]; [5],101%
same,viability at 2.188 µM,[1]; [6],84.8%
same,viability at 1 µM,[1]; [7],104%
same,viability at 0.4677 µM,[1]; [6],108%
same,viability at 0.2188 µM,[1]; [8],99.6%
same,viability at 0.1 µM,[1]; [9],95.5%
same,viability at 0.04677 µM,[1]; [10],105%
same,viability at 0.02188 µM,[1]; [11],110%
same,viability at 0.01 µM,[1]; [12],98.2%
same,viability at 4.677 µM,"[1]; IMR-90, Control cells, log (dose) [M] -5.33, individual replicates, SUP FIG 4C, read-out: % Cell Survival",107%
same,viability at 1 µM,"[1]; IMR-90, Control cells, log (dose) [M] -6, individual replicates, SUP FIG 4C, read-out: % Cell Survival",109%
same,viability at 0.2188 µM,"[1]; IMR-90, Control cells, log (dose) [M] -6.66, individual replicates, SUP FIG 4C, read-out: % Cell Survival",99.3%
same,viability at 0.1 µM,"[1]; IMR-90, Control cells, log (dose) [M] -7, individual replicates, SUP FIG 4C, read-out: % Cell Survival",91%
same,viability at 0.04677 µM,[1]; [13],102%
same,viability at 0.02188 µM,"[1]; IMR-90, Control cells, log (dose) [M] -7.66, individual replicates, SUP FIG 4C, read-out: % Cell Survival",111%
same,viability at 0.01 µM,[1]; [14],93.6%
same,viability at 4.68 µM,[1]; [15],92.8%
same,viability at 2.19 µM,[1]; [16],83.4%
same,viability at 0.468 µM,[1]; [16],93.7%
same,viability at 0.219 µM,"[1]; IMR-90, Control, log (dose) [M] -6.66, read-out: % Cell Survival",88.1%
same,viability at 0.1 µM,"[1]; IMR-90, Control, log (dose) [M] -7, read-out: % Cell Survival",98.7%
same,viability at 0.04677 µM,"[1]; IMR-90, Control, log (dose) [M] -7.33, read-out: % Cell Survival",99.6%
same,viability at 0.0219 µM,"[1]; IMR-90, Control, log (dose) [M] -7.66, read-out: % Cell Survival",85.6%
same,viability at 0.01 µM,"[1]; IMR-90, Control, log (dose) [M] -8, read-out: % Cell Survival",99.5%
same,viability at 10 µM,[2],84.8%
same,viability at 4.68 µM,[2],92.5%
same,viability at 2.19 µM,[2],84.4%
same,viability at 1 µM,[2],76.7%
same,viability at 0.468 µM,[2],92.9%
same,viability at 0.219 µM,[2],91%
same,viability at 0.1 µM,[2],95.4%
same,viability at 0.0468 µM,[2],98.8%
same,viability at 0.0219 µM,[2],96.8%
same,viability at 0.01 µM,[2],109%
same,viability at 10 µM,[3],138%
same,viability at 4.68 µM,[3],160%
same,viability at 2.19 µM,[3],123%
same,viability at 1 µM,[3],143%
same,viability at 0.468 µM,[3],130%
same,viability at 0.219 µM,[3],174%
same,viability at 0.1 µM,[3],155%
same,viability at 0.0468 µM,[3],136%
same,viability at 0.0219 µM,[3],127%
same,viability at 0.01 µM,[3],84.3%
